PMC6112376, “Comprehensive Analyses and Prioritization of Tox21 10K Chemicals Affecting Mitochondrial Function by in-Depth Mechanistic Studies” (Environmental Health Perspectives, 2018)
Where a name gives a salt, the structure may show the parent alone. Read-outs that look alike come from different tables or passages of the source.

How the values were obtained:
HepG2 cells [1] = settings: cited from earlier work
HepG2 cells [2] = test: cells; settings: Homo sapiens; for IC50: HepG2, read-out: MMP assays IC50 (µM) HepG2; for Emax: HepG2, read-out: MMP assays efficacy (%) HepG2
rat primary hepatocytes = test: MMP assay in rat primary hepatocytes; settings: for IC50: Rattus norvegicus, Hepatocyte, read-out: MMP assays IC50 (µM) Rat Hepatocytes; for MMP assays efficacy (%) Rat Hepatocytes / MMP assays IC50 (µM) Rat Hepatocytes: mean ± SD of three experiments
[3] = read-out: MMP assays IC50 (µM) qHTS-HepG2
[4] = read-out: MMP assays IC50 (µM), qHTS-HepG2

Structure (SMILES)	MMP assays efficacy (%) qHTS-HepG2 (HepG2 cells [1]) [%]	IC50 (HepG2 cells [1]; [3]) [µM]	IC50 (HepG2 cells [2]) [µM]	Emax (HepG2 cells [2]) [%]	IC50 (rat primary hepatocytes) [µM]	MMP assays efficacy (%) Rat Hepatocytes (rat primary hepatocytes)	IC50 (HepG2 cells [1]; [4]) [µM]	MMP assays IC50 (µM) Rat Hepatocytes (rat primary hepatocytes)
N#CSCSc1nc2ccccc2s1 [2-(Thiocyanomethylthio)benzothiazole]	-85±16	33.1 ± 4.58	56.2	73	30.5 ± 26.4	-136±65%	–	–
COCCOC(=O)C1=C(C)NC(C)=C(C(=O)OC/C=C/c2ccccc2)C1c1cccc([N+](=O)[O-])c1 (stereo not drawn) [Cilnidipine]	-104±6	12.5 ± 1.78	12.3	109	14.8 ± 8.07	-75±17%	–	–
CC(C)=CCOc1ccc(/C=C/C(=O)c2ccc(OCC=C(C)C)cc2OCC(=O)O)cc1 [Sofalcone]	-118±8	–	17.3	92	19.5 ± 2.25	-65±23%	24.6 ± 1.67	–
CCCCC(CC)CN1C(=O)C2C3C=CC(C3)C2C1=O (stereo not drawn) [MGK-264]	-65±7	–	28.2	84	17.8 ± 25.1	-55±25%	15.4 ± 10.5	–
Cc1cc(O)c(C(C)(C)C)cc1C(C)(C)C [4,6-Di-tert-butyl-m-cresol]	–	2.25 ± 1.49	2.51	96	45.9 ± 14.7	-103±14%	–	–
Cc1c(C(=O)NN2CCCCC2)nn(-c2ccc(Cl)cc2Cl)c1-c1ccc(Cl)cc1 [Rimonabant]	-127±12	–	17.3	73	17.4 ± 2.83	-53±1%	25.6 ± 1.67	–
CCOC1O[C@H]([C@@H](COCc2ccccc2)OCc2ccccc2)[C@H](OCc2ccccc2)[C@H]1O (stereo partly drawn) [Tribenoside]	-114±21	–	11.7	61	–	inactive	11.8 ± 0.8	inactive
Nc1cccc(N)n1 [2,6-Diaminopyridine]	-68±18	31.3 ± 10.3	35.5	84	20.9 ± 15.7	-75±28%	–	–
CCc1ccc(O)c(C(C)(C)C)c1 [Compound 2-tert-Butyl-4-ethylphenol]	-103±6	11.3 ± 2.6	15.8	95	–	inactive	–	inactive
Nc1ccc(O)c([N+](=O)[O-])c1 [Compound 4-Amino-2-nitrophenol]	-86±33	15.4 ± 10.6	14.1	97	33.5 ± 2.73	-90±12%	–	–
Cc1ccc2c(c1)C(=O)c1ccccc1C2=O [Compound 2-Methylanthraquinone]	-77±13	6.33 ± 1.15	11.2	51	5.97 ± 0.49	-36±2%	–	–
C=C1/C(=C\C=C2/CCC[C@]3(C)[C@@H]([C@H](C)/C=C/[C@@H](O)C4CC4)CC[C@@H]23)C[C@@H](O)C[C@@H]1O [Calcipotriene]	-63±12	26 ± 3.89	21.8	124	17.3	-63±23%	–	–
CCCCCOC(=O)c1ccc(O)cc1 [Pentylparaben]	-119±16	–	14.1	114	–	inactive	8.74 ± 1.65	inactive
CC1=NN(c2ccccc2)C(=O)C1 [Compound 1-Phenyl-3-methyl-5-pyrazolone]	-121±16	31.8 ± 4.28	28.2	82	25.8 ± 10.1	-62±9%	–	–
C=C1CC[C@H](O)C/C1=C/C=C1\CCC[C@]2(C)[C@@H]([C@H](C)CCCC(C)(C)O)CC[C@@H]12 [Calcifediol]	-109±10	5.82 ± 0.47	12.3	115	14.2 ± 9.57	-66±31%	–	–
Oc1cc(O)c(Cl)cc1Cl [4,6-Dichloro-1,3-benzenediol]	-100±10	9.55 ± 2.74	15.8	108	35.7 ± 5.79	-37±3%	–	–
O=c1c(-c2ccccc2)c1-c1ccccc1 [Diphenylcyclopropenone]	-79±6	25.6 ± 1.67	27.5	79	–	inactive	–	inactive
CCCCCCCCCCCCCC[n+]1ccccc1 [Tetradecylpyridinium bromide]	-76±21	–	17.8	102	33.5 ± 2.73	-99±17%	22.5 ± 4.1	–
CC(C)(C)C1=CC(=O)C=C(C(C)(C)C)C1=O	-73±22	18.6 ± 12.4	39.8	80	–	inactive	–	inactive
CNc1ncnc2nc[nH]c12 [(N-6)-Methyladenine]	-65±7	5.98 ± 5.84	6.31	56	–	inactive	–	inactive
O=C(Nc1ncc([N+](=O)[O-])s1)c1cccs1 [Tenonitrozole]	-95±3	–	0.56	99	0.68 ± 0.45	–	0.73 ± 0.12	–
CC(=O)Nc1ccc(S(=O)(=O)Nc2ccc([N+](=O)[O-])cc2)cc1 [Sulfanitran]	-54±11	–	17.3	67	19.5 ± 2.25	-63±14%	26.6 ± 8.77	–
CN1C(=O)/C(=N\NC(N)=S)c2ccccc21 [Methisazone]	-96±7	–	12.6	90	21.5 ± 9.04	-94±16%	5.82 ± 1.38	–
O=C1OC[C@H](Cc2cccc(O)c2)[C@H]1Cc1cccc(O)c1 [Enterolactone]	-79±21	9.99 ± 5.02	10.7	76	–	inactive	–	inactive
Nc1ccc([N+](=O)[O-])cc1O [Compound 2-Amino-5-nitrophenol]	-70±18	27.4 ± 14.1	35.5	76	52.1 ± 17.7	-63±37%	–	–
O=C1c2cccc(O)c2C(=O)c2c(O)cc(CO)cc21 [Aloe-emodin]	-78±8	1.79 ± 1.54	7.08	90	8.43 ± 5.96	-48±19%	–	–
COC(=O)C1=C(C)NC(C)=C(C(=O)OC(C)(C)CN(C)CCC(c2ccccc2)c2ccccc2)C1c1cccc([N+](=O)[O-])c1 (stereo not drawn) [Lercanidipine hydrochloride]	-83±7	–	–	117	27.5	-77±16%	6.53 ± 0.53	–
